Measurements from patent US6737383B1, “Herbicidal oxadiazolidines” (priority 1999, dated 2004).

Key:
[1] = test system: corn; test: Test B pre/postemergence corn; assay type: in vivo, Zea mays
Outline: (§1)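 Test chemicals in a non-phytotoxic solvent mixture with surfactant were sprayed preemergence onto planted seeds and postemergence onto plants 2 to 18 cm tall (1- to 4-leaf stage). After twelve to sixteen days in a greenhouse, injury was visually rated against untreated controls from 0 (no effect) to 10 (complete control).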

[2] = test system: purple nutsedge; test: Test B pre/postemergence purple nutsedge; assay type: in vivo, Cyperus rotundus
Outline: as §1

[3] = test system: bamyardgrass; test: Test B flood test barnyardgrass; assay type: in vivo, Echinochloa crus-galli
Outline: (§2)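 Plants were grown to the 2-leaf stage before treatment with test chemical, then held in a greenhouse for twelve to sixteen days. Injury was visually rated against untreated controls on a 0–10 scale, where 0 is no effect and 10 is complete control.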

[4] = test system: wheat; test: Test B pre/postemergence wheat; assay type: in vivo, Triticum aestivum
Outline: as §1

[5] = test system: giant foxtail; test: Test B pre/postemergence giant foxtail; assay type: in vivo, Setaria faberii
Outline: as §1

[6] = test system: pigweed; test: Test B pre/postemergence pigweed; assay type: in vivo, Amaranthus retroflexus
Outline: as §1

[7] = test system: sugar beet; test: Test B pre/postemergence sugar beet; assay type: in vivo, Beta vulgaris
Outline: as §1

[8] = test system: cocklebur; test: Test B pre/postemergence cocklebur; assay type: in vivo, Xanthium strumarium; conditions: for Cocklebur plant response rating: Postemergence; for Plant response rating, Cocklebur: Preemergence
Outline: as §1

[9] = test system: bedstraw; test: Test B pre/postemergence bedstraw; assay type: in vivo, Galium aparine
Outline: as §1

[10] = test system: wild oat; test: Test B pre/postemergence wild oat; assay type: in vivo, Avena fatua
Outline: as §1

[11] = test system: rice; test: Test B flood test rice; assay type: in vivo, Oryza sativa
Outline: as §2

[12] = test system: blackgrass; test: Test B pre/postemergence blackgrass; assay type: in vivo, Alopecurus myosuroides
Outline: as §1

[13] = test system: crabgrass; test: Test B pre/postemergence crabgrass; assay type: in vivo, Digitaria sanguinalis
Outline: as §1

[14] = test system: surinam grass; test: Test B pre/postemergence surinam grass; assay type: in vivo, Brachiaria decumbens
Outline: as §1

[15] = test system: morningglory; test: Test B pre/postemergence morningglory; assay type: in vivo, Ipomoea hederacea
Outline: as §1

[16] = test system: rape; test: Test B pre/postemergence rape; assay type: in vivo, Brassica napus
Outline: as §1

[17] = Postemergence, Rate 62 g/ha, scale 0 to 10, 0 is no effect, 10 is complete control
[18] = Postemergence, Rate 250 g/ha, scale 0 to 10, 0 no effect, 10 complete control
[19] = Preemergence, Rate 62 g/ha, scale 0 to 10, 0 is no effect, 10 is complete control
[20] = Preemergence, Rate 125 g/ha, scale 0 to 10 (0 no effect, 10 complete control)
[21] = Preemergence, Rate 250 g/ha, scale of 0 to 10 where 0 is no effect and 10 is complete control
[22] = Preemergence, Rate 500 g/ha, scale 0 (no effect) to 10 (complete control)
[23] = Rate 125 g/ha, Postemergence, scale 0 to 10, 0 no effect, 10 complete control
[24] = Rate 500 g/ha, Postemergence, 0 to 10 scale (0 no effect, 10 complete control)
[25] = Rate 125 g/ha, Postemergence section (flood test species), scale 0 to 10, 0 no effect, 10 complete control
[26] = Rate 250 g/ha, headed Pre-emergence (flood test species), scale 0 to 10 (0 no effect, 10 complete control)
[27] = Rate 500 g/ha, Postemergence section of Table B, 0 to 10 scale (0 no effect, 10 complete control)
[28] = Rate 500 g/ha, headed Pre-emergence (flood test species), scale 0 to 10 (0 no effect, 10 complete control)
[29] = Rate 1000 g/ha, Pre-emergence (as headed), scale 0 to 10
[30] = flood test, listed under Postemergence, Rate 250 g/ha, scale 0 to 10, 0 no effect, 10 complete control
[31] = Rate 62 g/ha, scale 0 to 10, 0 is no effect, 10 is complete control

SMILES: Cc1ccccc1-n1c(=O)on(C(=O)N(c2ccccc2)C(C)C)c1=O [Compound 36]
- Corn plant response rating [1, 17]: 0
- Corn plant response rating [1, 18]: 0
- Plant response rating, Corn [1, 19]: 0
- Plant response rating, Corn [1, 20]: 0
- Plant response rating, Corn [1, 21]: 0
- Corn plant response rating [1, 22]: 0
- Corn plant response rating [1, 23]: 0
- Corn plant response rating [1, 24]: 0
- Nutsedge plant response rating [2, 17]: 0
- Nutsedge plant response rating [2, 18]: 0
- Plant response rating, Nutsedge [2, 19]: 0
- Plant response rating, Nutsedge [2, 20]: 0
- Plant response rating, Nutsedge [2, 21]: 0
- Nutsedge plant response rating [2, 22]: 0
- Nutsedge plant response rating [2, 23]: 0
- Nutsedge plant response rating [2, 24]: 0
- Barnyardgrass plant response rating [3, 17]: 0
- Barnyardgrass plant response rating [3, 25]: 0
- Barnyardgrass plant response rating [3, 26]: 0
- Barnyardgrass plant response rating [3, 27]: 5
- Plant response rating, Barnyardgrass [3, 28]: 0
- Barnyardgrass plant response rating [3, 29]: 0
- Barnyardgrass plant response rating ([3]; Rate 2000 g/ha, Pre-emergence (as headed), scale 0 to 10, 0 no effect, 10 complete control): 0
- Barnyardgrass plant response rating [3, 30]: 2
- Wheat plant response rating [4, 17]: 0
- Wheat plant response rating [4, 18]: 0
- Plant response rating, Wheat [4, 19]: 0
- Plant response rating, Wheat [4, 20]: 0
- Plant response rating, Wheat [4, 21]: 0
- Wheat plant response rating [4, 22]: 0
- Wheat plant response rating [4, 23]: 0
- Giant foxtail plant response rating [5, 17]: 0
- Giant foxtail plant response rating [5, 18]: 3
- Plant response rating, Giant foxtail [5, 19]: 10
- Plant response rating, Giant foxtail [5, 20]: 10
- Plant response rating, Giant foxtail [5, 21]: 10
- Giant foxtail plant response rating [5, 22]: 10
- Giant foxtail plant response rating [5, 23]: 3
- Giant foxtail plant response rating [5, 24]: 3
- Redroot pigweed plant response rating [6, 17]: 2
- Redroot pigweed plant response rating [6, 18]: 7
- Plant response rating, Redroot pigweed [6, 19]: 0
- Plant response rating, Redroot pigweed [6, 20]: 0
- Plant response rating, Redroot pigweed [6, 21]: 6
- Redroot pigweed plant response rating [6, 22]: 7
- Redroot pigweed plant response rating [6, 23]: 5
- Redroot pigweed plant response rating [6, 24]: 7
- Sugarbeets plant response rating [7, 17]: 0
- Sugarbeets plant response rating [7, 18]: 0
- Plant response rating, Sugarbeets [7, 19]: 0
- Plant response rating, Sugarbeets [7, 20]: 0
- Plant response rating, Sugarbeets [7, 21]: 0
- Sugarbeets plant response rating [7, 22]: 5
- Sugarbeets plant response rating [7, 23]: 0
- Cocklebur plant response rating [8, 31]: 0
- Cocklebur plant response rating ([8]; Rate 250 g/ha, scale 0 to 10, 0 no effect, 10 complete control): 0
- Plant response rating, Cocklebur [8, 31]: 0
- Plant response rating, Cocklebur ([8]; Rate 125 g/ha, scale 0 to 10 (0 no effect, 10 complete control)): 0
- Plant response rating, Cocklebur ([8]; Rate 250 g/ha, scale of 0 to 10 where 0 is no effect and 10 is complete control): 0
- Cocklebur plant response rating ([8]; Rate 125 g/ha, scale 0 to 10, 0 no effect, 10 complete control): 0
- Cocklebur plant response rating ([8]; Rate 500 g/ha, 0 to 10 scale (0 no effect, 10 complete control)): 4
- Bedstraw plant response rating [9, 17]: 0
- Plant response rating, Bedstraw [9, 19]: 0
- Plant response rating, Bedstraw [9, 20]: 0
- Bedstraw plant response rating [9, 22]: 0
- Wild oats plant response rating [10, 17]: 0
- Wild oats plant response rating [10, 18]: 0
- Plant response rating, Wild oats [10, 20]: 2
- Plant response rating, Wild oats [10, 21]: 6
- Wild oats plant response rating [10, 22]: 7
- Wild oats plant response rating [10, 23]: 0
- Rice plant response rating [11, 17]: 0
- Rice plant response rating [11, 25]: 0
- Rice plant response rating [11, 26]: 0
- Rice plant response rating [11, 27]: 2
- Plant response rating, Rice [11, 28]: 0
- Rice plant response rating [11, 29]: 0
- Rice plant response rating ([11]; Rate 2000 g/ha, Pre-emergence (as headed), scale 0 to 10): 0
- Rice plant response rating [11, 30]: 0
- Blackgrass plant response rating [12, 17]: 0
- Blackgrass plant response rating [12, 18]: 4
- Plant response rating, Blackgrass [12, 19]: 4
- Plant response rating, Blackgrass [12, 20]: 5
- Plant response rating, Blackgrass [12, 21]: 6
- Blackgrass plant response rating [12, 22]: 7
- Blackgrass plant response rating [12, 23]: 3
- Blackgrass plant response rating [12, 24]: 6
- Crabgrass plant response rating [13, 17]: 3
- Crabgrass plant response rating [13, 18]: 3
- Plant response rating, Crabgrass [13, 19]: 8
- Plant response rating, Crabgrass [13, 20]: 9
- Plant response rating, Crabgrass [13, 21]: 9
- Crabgrass plant response rating [13, 22]: 10
- Crabgrass plant response rating [13, 23]: 3
- Crabgrass plant response rating [13, 24]: 8
- B. signalgrass plant response rating [14, 17]: 0
- B. signalgrass plant response rating [14, 18]: 0
- Plant response rating, B. signalgrass [14, 19]: 5
- Plant response rating, B. signalgrass [14, 20]: 8
- Plant response rating, B. signalgrass [14, 21]: 8
- B. signalgrass plant response rating [14, 22]: 8
- B. signalgrass plant response rating [14, 23]: 0
- B. signalgrass plant response rating [14, 24]: 4
- Morningglory plant response rating [15, 17]: 4
- Morningglory plant response rating [15, 18]: 9
- Plant response rating, Morningglory [15, 19]: 0
- Plant response rating, Morningglory [15, 20]: 0
- Plant response rating, Morningglory [15, 21]: 0
- Morningglory plant response rating [15, 22]: 0
- Morningglory plant response rating [15, 23]: 9
- Morningglory plant response rating [15, 24]: 9
- Rape plant response rating [16, 17]: 0
- Rape plant response rating [16, 18]: 0
- Plant response rating, Rape [16, 19]: 0
- Plant response rating, Rape [16, 20]: 0
- Plant response rating, Rape [16, 21]: 0
- Rape plant response rating [16, 22]: 3
- Rape plant response rating [16, 23]: 0
- Rape plant response rating [16, 24]: 0
